The values below come from patent US20230329282A1, “Application of 1-Deoxynojirimycin in Feed for Improving Nutritional Value and Sensory Effect of Rabbit Meat Products” (priority 2023, published 2023).

Marks after values point to notes of the source that are not given here.

For experiment [1], the system named is New Zealand white rabbits. Nature of the experiment: Meat quality of rabbit longissimus dorsi (pH, meat color, drip loss, shear force) after DNJ-supplemented diet. The format is in vivo. The settings on record: 28 d; for Meat color Brightness L* / Meat color Redness a* / Meat color Yellowness b* / pH45min / pH24 h / pH24 h decreased: longissimus dorsi; for Drip loss: meat hung at 4° C. 24 h. The source says:
(§1) The single-factor completely randomized test design is adopted. 36 45-day-old healthy New Zealand white rabbits (male) with the average weight of (1.05±0.04) kg are selected and randomly divided into 3 groups, and each group has 12 replicates with 1 rabbit per replicate. A control group is fed with a basal diet, an L-DNJ group is fed with the basal diet+0.14 g/kg DNJ, and an H-DNJ group is fed with the basal diet+0.28 g/kg DNJ. The diet is uniformly mixed to be prepared into cylindrical particles with the diameter of 6 mm and the length of 1 cm. The preliminary trial period is 14 d, and the trial period is 28 d.
Before the test, rabbit houses and cages are cleaned and disinfected, rabbits are immunized according to routine procedures, and the rabbit houses are naturally ventilated and illuminated. Each experimental rabbit is raised in a single cage and fed with a diet and water twice a day at fixed time (8:00 am and 17:00 pm), and is free to eat and drink.
The rabbits are deprived of food (but not water) on the night of the end of the experiment, and after weighing in the next morning, 8 rabbits with similar weight are selected from each group and slaughtered. The longissimus dorsi muscles of the rabbits are collected, the pH values of the front, middle and back parts of the longissimus dorsi muscle are measured with a pH meter (Bante221, Shanghai Bante Instrument Co., Ltd.) having the function of automatic temperature compensation and then measured again after standing at room temperature for 24 h, and the pH decreased values of the muscle within 24 h are calculated. The pH value is the average value of the three readings. The meat color (L*, α*, b*) is measured with a TC-PIIG automatic color difference meter (Beijing Aoyike Photoelectric Instrument Co., Ltd.) on the muscle surface. The detection light source is D65 according to CIE laboratory standards, and the measurement area is 8 mm in diameter. The average value is obtained by making three measurements at each detection point.
About 20 g of meat sample is weighed (demoted as M1), hung with a thin thread, and covered with a plastic bag with the mouth sealed, enough space is left inside to accommodate oozy water drops, and the meat sample is hung in a 4° C. refrigerator for 24 h. After being taken out, the meat sample is weighed (denoted as M2) after the surface moisture is absorbed with absorbent paper. 3 parallel samples are measured for each rabbit, and the results are averaged. Drip loss=(M1−M2)/M1×100%.
Another meat sample is trimmed into a 1 cm×1 cm×2.5 cm meat strip, the shear force is measured in the direction perpendicular to the muscle fibers by a TMS-PRO texture analyzer (FTC Corporation, USA) for three times, and the results are averaged.

The subject of experiment [2] is New Zealand white rabbits. Nature of the experiment: Antioxidant indexes of rabbit meat (T-AOC, SOD, GSH-Px, MDA kits). As to conditions: 28 d, muscle homogenate. The format is in vivo.
Text: as §1
About 5 g of muscular tissue is rinsed in 0-4° C. precooled normal saline to remove blood, dried with filter paper, and then weighed. The muscle tissue and 0-4° C. precooled homogenate buffer are thoroughly mixed and homogenized in an ice water bath at a […] to prepare muscle tissue homogenate with the mass concentration of 10%. The homogenate buffer contains 0.01 mol/L sucrose, 0.14 mol/L NaCl, 0.01 mol/L Tris-HCl and 0.0001 mol/L Na2EDTA, with the pH value of 7.4. The total protein content and the malondialdehyde (MDA) content of the tissue suspension is detected with a kit by a colorimetric method. Before the activities of total antioxidant capacity (T-AOC) enzyme, superoxide dismutase (SOD) and glutathione peroxidase (GSH-Px) are measured, the homogenate suspension is centrifuged at 3000 r/min for 15 min, the superneant is taken, and the activities of the enzymes are measured with relevant kits. All the kits are from Nanjing Jiancheng Bioengineering Institute, and the operation method is shown in the instructions of kits.

The mark [3] stands for this setting: H-DNJ: basal diet+0.28 g/kg DNJ.
The mark [4] stands for this setting: L-DNJ: basal diet+0.14 g/kg DNJ.

For `OC[C@H]1NC[C@H](O)[C@@H](O)[C@@H]1O` [DNJ, 1-deoxynojirimycin], in experiment [1] (setting [3]), the Shear force was 33.51 N/cm^2, the “Meat color Brightness L*” value is 55.34^b, the “Meat color Redness a*” value is 1.71ª and the “Meat color Yellowness b*” value was 8.35. Moreover, in experiment [1] (setting [3]), the pH45min came to 6.77, the pH24 h came to 5.89, the pH24 h decreased was 0.87 and the Drip loss was 3.17%. Besides, in experiment [1] (setting [4]), the Shear force turned out to be 32.86 N/cm^2, the “Meat color Brightness L*” value is given as 55.82^ab, the “Meat color Redness a*” value is reported as 1.56ª and the “Meat color Yellowness b*” value came out at 8.32. Moreover, in experiment [1] (setting [4]), the pH45min was determined as 6.62, the pH24 h was 5.87, the pH24 h decreased is given as 0.76 and the Drip loss was determined as 3.56%. Moreover, in experiment [2] (setting [3]), the “GSH-Px of rabbit meat” value is listed as 7.88ª U/mg prot, the “MDA of rabbit meat” value was found to be 0.45 nmol/mg prot, the “SOD of rabbit meat” value came to 25.91 U/mg prot and the “T-AOC of rabbit meat” value is given as 0.82ª U/mg prot. In addition, in experiment [2] (setting [4]), the “GSH-Px of rabbit meat” value is 6.36^b U/mg prot, the “MDA of rabbit meat” value was found to be 0.41 nmol/mg prot, the “SOD of rabbit meat” value was determined as 25.01 U/mg prot and the “T-AOC of rabbit meat” value is 0.78^ab U/mg prot.
